Source: ChEMBL document CHEMBL3885881, “DrugMatrix”

Organism: Rattus norvegicus
Assay: DrugMatrix - Regimen: Daily Repeat
Format: toxicity, organism-based, Sprague-Dawley
Parameters: regimen Daily Repeat, gender Male, age 6-8 weeks
Settings: in vivo, po, route oral GAVAGE, vehicle 100 % WATER; for ABSOLUTE BASOPHIL / ABSOLUTE EOSINOPHIL / ABSOLUTE LYMPHOCYTE / ABSOLUTE MONOCYTE / ABSOLUTE SEGMENTED NEUTROPHIL / BASOPHIL / EOSINOPHIL / ERYTHROCYTE COUNT / HEMATOCRIT / HEMOGLOBIN / LEUKOCYTE COUNT / LYMPHOCYTE / MEAN CORPUSCULAR HEMOGLOBIN / MEAN CORPUSCULAR HEMOGLOBIN CONCENTRATION / MEAN CORPUSCULAR VOLUME / MONOCYTE / NEUTROPHIL / NUCLEATED RED BLOOD CELLS / PLATELET COUNT: tissue Blood; for ALANINE AMINOTRANSFERASE / ALBUMIN / ALKALINE PHOSPHATASE / ASPARTATE AMINOTRANSFERASE / BLOOD UREA NITROGEN / CARBON DIOXIDE / CHLORIDE / CHOLESTEROL / CREATINE PHOSPHOKINASE / CREATININE / GLUCOSE / LACTATE DEHYDROGENASE / LIPASE / PHOSPHORUS / POTASSIUM / SODIUM / TOTAL BILIRUBIN / TOTAL PROTEIN / URIC ACID: tissue Plasma
[1] = 15 mg/kg, 120 h, dose level Low, time 5 day
[2] = 79 mg/kg, 72 h, dose level High, time 3 day
[3] = 79 mg/kg, 120 h, dose level High, time 5 day

NNC(=O)c1ccncc1 [ISONIAZID]
ABSOLUTE BASOPHIL [1]: 0 CELLS/uL | ABSOLUTE EOSINOPHIL [1]: 0 CELLS/uL | ABSOLUTE LYMPHOCYTE [1]: 13245.33 CELLS/uL | ABSOLUTE MONOCYTE [1]: 507 CELLS/uL | ABSOLUTE SEGMENTED NEUTROPHIL [1]: 1614.33 CELLS/uL | BASOPHIL [1]: 0% | EOSINOPHIL [1]: 0% | ERYTHROCYTE COUNT [1]: 5.42 x10E6/uL | HEMATOCRIT [1]: 33.8% | HEMOGLOBIN [1]: 12.8 G/DL | LEUKOCYTE COUNT [1]: 15.37 x10E3/uL | LYMPHOCYTE [1]: 85% | MEAN CORPUSCULAR HEMOGLOBIN [1]: 23.67 pg | MEAN CORPUSCULAR HEMOGLOBIN CONCENTRATION [1]: 37.9 G/DL | MEAN CORPUSCULAR VOLUME [1]: 62.47 fL | MONOCYTE [1]: 3.33% | NEUTROPHIL [1]: 11.67% | NUCLEATED RED BLOOD CELLS [1]: 0 /100WBC | PLATELET COUNT [1]: 1239.67 x10E3/uL | ALANINE AMINOTRANSFERASE [1]: 47 u/L | ALBUMIN [1]: 4.33 G/DL | ALKALINE PHOSPHATASE [1]: 384.67 u/L | ASPARTATE AMINOTRANSFERASE [1]: 85 u/L | BLOOD UREA NITROGEN [1]: 16.67 mg/dL | CARBON DIOXIDE [1]: 23.67 mmol/L | CHLORIDE [1]: 102.67 MEQ/L | CHOLESTEROL [1]: 76 mg/dL | CREATINE PHOSPHOKINASE [1]: 246.67 u/L | CREATININE [1]: 0.47 mg/dL | GLUCOSE [1]: 188.33 mg/dL | LACTATE DEHYDROGENASE [1]: 93.67 u/L | LIPASE [1]: 11 u/L | PHOSPHORUS [1]: 11.47 mg/dL | POTASSIUM [1]: 5.97 MEQ/L | SODIUM [1]: 146 MEQ/L | TOTAL BILIRUBIN [1]: 0.23 mg/dL | TOTAL PROTEIN [1]: 6.3 G/DL | URIC ACID [1]: 2.17 mg/dL | ABSOLUTE BASOPHIL [2]: 0 CELLS/uL | ABSOLUTE EOSINOPHIL [2]: 46.33 CELLS/uL | ABSOLUTE LYMPHOCYTE [2]: 10642.67 CELLS/uL | ABSOLUTE MONOCYTE [2]: 65.33 CELLS/uL | ABSOLUTE SEGMENTED NEUTROPHIL [2]: 779 CELLS/uL | BASOPHIL [2]: 0% | EOSINOPHIL [2]: 0.33% | ERYTHROCYTE COUNT [2]: 6 x10E6/uL | HEMATOCRIT [2]: 38.67% | HEMOGLOBIN [2]: 14.03 G/DL | LEUKOCYTE COUNT [2]: 11.53 x10E3/uL | LYMPHOCYTE [2]: 91.67% | MEAN CORPUSCULAR HEMOGLOBIN [2]: 23.4 pg | MEAN CORPUSCULAR HEMOGLOBIN CONCENTRATION [2]: 36.3 G/DL | MEAN CORPUSCULAR VOLUME [2]: 64.47 fL | MONOCYTE [2]: 0.67% | NEUTROPHIL [2]: 7.33% | NUCLEATED RED BLOOD CELLS [2]: 0 /100WBC | PLATELET COUNT [2]: 1065.67 x10E3/uL | ALANINE AMINOTRANSFERASE [2]: 19 u/L | ALBUMIN [2]: 4.9 G/DL | ALKALINE PHOSPHATASE [2]: 349 u/L | ASPARTATE AMINOTRANSFERASE [2]: 74.33 u/L | BLOOD UREA NITROGEN [2]: 22.67 mg/dL | CARBON DIOXIDE [2]: 25.67 mmol/L | CHLORIDE [2]: 101.67 MEQ/L | CHOLESTEROL [2]: 80 mg/dL | CREATINE PHOSPHOKINASE [2]: 463.67 u/L | CREATININE [2]: 0.29 mg/dL | GLUCOSE [2]: 227.33 mg/dL | LACTATE DEHYDROGENASE [2]: 268 u/L | LIPASE [2]: 9.67 u/L | PHOSPHORUS [2]: 14.17 mg/dL | POTASSIUM [2]: 7.15 MEQ/L | SODIUM [2]: 146.23 MEQ/L | TOTAL BILIRUBIN [2]: 0.13 mg/dL | TOTAL PROTEIN [2]: 6.77 G/DL | URIC ACID [2]: 3.97 mg/dL | ABSOLUTE BASOPHIL [3]: 0 CELLS/uL | ABSOLUTE EOSINOPHIL [3]: 53 CELLS/uL | ABSOLUTE LYMPHOCYTE [3]: 13139.33 CELLS/uL | ABSOLUTE MONOCYTE [3]: 527.33 CELLS/uL | ABSOLUTE SEGMENTED NEUTROPHIL [3]: 647 CELLS/uL | BASOPHIL [3]: 0% | EOSINOPHIL [3]: 0.33% | ERYTHROCYTE COUNT [3]: 5.87 x10E6/uL | HEMATOCRIT [3]: 36.03% | HEMOGLOBIN [3]: 13.4 G/DL | LEUKOCYTE COUNT [3]: 14.37 x10E3/uL | LYMPHOCYTE [3]: 91.67% | MEAN CORPUSCULAR HEMOGLOBIN [3]: 22.8 pg | MEAN CORPUSCULAR HEMOGLOBIN CONCENTRATION [3]: 37.17 G/DL | MEAN CORPUSCULAR VOLUME [3]: 61.33 fL | MONOCYTE [3]: 3.67% | NEUTROPHIL [3]: 4.33% | NUCLEATED RED BLOOD CELLS [3]: 0.33 /100WBC | PLATELET COUNT [3]: 1389.67 x10E3/uL | ALANINE AMINOTRANSFERASE [3]: 28 u/L | ALBUMIN [3]: 4.37 G/DL | ALKALINE PHOSPHATASE [3]: 359.67 u/L | ASPARTATE AMINOTRANSFERASE [3]: 83.67 u/L | BLOOD UREA NITROGEN [3]: 17 mg/dL | CARBON DIOXIDE [3]: 24.67 mmol/L | CHLORIDE [3]: 102.33 MEQ/L | CHOLESTEROL [3]: 63.67 mg/dL | CREATINE PHOSPHOKINASE [3]: 505 u/L | CREATININE [3]: 0.21 mg/dL | GLUCOSE [3]: 173 mg/dL | LACTATE DEHYDROGENASE [3]: 177.33 u/L | LIPASE [3]: 10.33 u/L | PHOSPHORUS [3]: 12.07 mg/dL | POTASSIUM [3]: 6.62 MEQ/L | SODIUM [3]: 143.8 MEQ/L | TOTAL BILIRUBIN [3]: 0.17 mg/dL | TOTAL PROTEIN [3]: 6.3 G/DL | URIC ACID [3]: 2.17 mg/dL
